Here are results for 1 compound from article PMC12042115 (mLife, 2025).

Data set [1] has as its target Mtb ClpP1P2 (Mycobacterium tuberculosis, UniProt P9WPC3+P9WPC5). Kind of data set: Mtb ClpP1P2 peptidase assay (library screening and IC50 determination). Type of data set: biochemical.
Data set [2] in a line: Hydrolysis in protein‐free buffer (data not published). The note with it: over time. The format is physicochemical.
The test system of data set [3] is ClpP1P2. Briefly: Jump dilution experiment. Type of data set: biochemical, Mycobacterium tuberculosis. The note with it: 10 µM, 1 h pre‐incubation, diluted to 100 nM, 4‐h course.
Data set [4] relates to ClpP1(7‐200) ClpP2(16‐214) enzyme complex. Kind of data set: Intact protein MS. The note with it: 100 μM compound, 10 μM enzyme, 1 h. Type of data set: binding, Mycobacterium tuberculosis. How it is done:
10 μM of the ClpP1(7‐200) ClpP2(16‐214) enzyme complex was incubated with DMSO (as negative control) and 100 μM GDI‐5755 separately in 30 mM PIPES buffer only at room temperature in a final reaction volume of 40 μl. After 1 h of incubation, the samples were sent to a service lab at Peking University for a Matrix‐Assisted Laser Desorption/Ionization (MALDI) Time‐of‐Flight (TOF) MS analysis.

Each structure is given as a SMILES string. Like-named read-outs stand apart in the source and are kept apart here.

Chain of Mtb ClpP1P2 (P9WPC3 16-214, one chain of several): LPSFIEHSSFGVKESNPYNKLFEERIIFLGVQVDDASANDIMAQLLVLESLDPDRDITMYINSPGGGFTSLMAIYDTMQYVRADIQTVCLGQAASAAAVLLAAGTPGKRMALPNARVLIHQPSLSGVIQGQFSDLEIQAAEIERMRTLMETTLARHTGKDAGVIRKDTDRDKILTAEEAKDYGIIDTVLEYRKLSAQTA

What is called IC50 is the concentration at which inhibition is half-maximal. For `O=C(Oc1ccc(Cl)cc1)c1ccc(N2CCOCC2)c([N+](=O)[O-])c1` [GDI‐5755], the IC50 was around 2.1 µM in data set [1] (Figure 2B, neat/synthesized compounds, read-out: ClpP1P2 IC50); around 0.13 µM in data set [1] (enzyme pre‐incubated with inhibitor before adding substrate, decreased to nearly enzyme concentration, read-out: IC50 after prolonged pre‐incubation); 2.09 µM in data set [1] (library stocks, concentration–response, read-out: IC50); 2.4 ± 0.07 µM in data set [1] (resynthesized compound, screening assay conditions, three replicates, read-out: IC50). Moreover, the “stability in protein‐free buffer” value in data set [2] was “susceptible to hydrolysis”. The “recovery of peptidase activity after jump dilution” value in data set [3] is given as “did not show recovery of peptidase activity”. In addition, the “mass difference between new species and ClpP1” value in data set [4] was 234.30 Da. In addition, the “mass of ClpP2 after treatment” value in data set [4] was “unchanged”.
